{"source": "patent US20150080475A1", "about": "“Memantine Protects Inflammation-Related Degeneration of Dopamine Neurons Through Inhibition of Over-Activated Microglia and Release of Neurotrophic Factors From Astroglia” (priority 2009, published 2015)", "key": {"[1]": {"test_system": "TNF-α", "assay": "TNF-α ELISA after LPS", "assay_type": "cell-based", "details": "4 h after LPS treatment", "description": "The production of TNF-α was measured with a commercial ELISA kit from R&D Systems. The PGE2 release was measured with a commercial ELISA kit from Cayman Chemical Company.\nNeuron-glia cultures were pretreated for 30 min with MMT (3 μM) or vehicle before LPS stimulation. […] Production of superoxide (30 min after LPS) and iROS (2 h after LPS) was decreased by MMT treatment (FIGS. 6A and 6B). […] The production of PGE2 in cultures pretreated with 3 and 10 μM MMT decreased by 23% and 27% respectively (FIG. 6E)."}, "[2]": {"test_system": "NMDA receptor", "details": "in vitro; cited from earlier work"}, "[3]": {"test_system": "DA neurons", "assay": "[3H] DA uptake, MMT alone in rat mesencephalic neuron-glia cultures (neurotrophic effect)", "assay_type": "cell-based", "details": "for increase of DA uptake capacity by MMT alone: one week", "description": "(§1) Rat and mouse ventral mesencephalic neuron-glia cultures were prepared using a described protocol (Gao H M, Hong J S, Zhang W Q, Liu B (2002) Distinct Role for Microglia in Rotenone-Induced Degeneration of Dopaminergic Neurons. J Neurosci 22(3):782-790). Briefly, midbrain tissues were dissected from day 14 Fisher 344 rat embryos or day 14 mouse embryos (PHOX^+/+ or PHOX^−/−). Cells were dissociated via gentle mechanical trituration in minimum essential medium (MEM) and immediately seeded (5×10^5/well) in poly D-lysine (20 μg/mL) precoated 24-well plates. Cells were seeded in maintenance media and treated with the treatment media described previously (Gao H M, Hong J S, Zhang W Q, Liu B (2002) Distinct Role for Microglia in Rotenone-Induced Degeneration of Dopaminergic Neurons. J Neurosci 22(3):782-790). Three days after seeding, the cells were replenished with 500 μL of fresh maintenance media. Cultures were exposed 7 days after seeding. At the time of treatment, the composition of the cultures was approximately 48% astrocytes, 11% microglia, 40% neurons, and 1 to 1.5% TH-immunoreactive (ir) neurons.\n(§2) Cells were incubated in Krebs-Ringer buffer (16 mM NaH2PO4, 1.2 mM MgSO4, 1.3 mM EDTA, […], for 21 min at 37° C. with 1 μM [^3H] DA. Nonspecific uptake was blocked for DA with 10 μM mazindole. After incubation, cells were washed three times with 1 mL/well of ice-cold Krebs-Ringer buffer. Cells were then lysed with 0.5 mL/well of 1 N NaOH and mixed with 15 mL of scintillation fluid. Radioactivity was measured on a scintillation counter, where specific [^3H] DA uptake was calculated by subtracting the mazindole.\n(§3) Rat mesencephalic neuron-glia cultures were pretreated for 30 min with vehicle or 1, 3, 10 μM MMT before adding LPS (2.5 to 5 ng/ml) to the cultures. One week later, the neurotoxic effect of LPS on DA neurons were assessed by both [H^3] DA uptake, which measures the functional capacity of high affinity uptake of DA cells and cell count of tyrosine hydroxylase-positive (TH-ir) cells. [H^3] […]"}, "[4]": {"test_system": "DA neurons", "assay": "[3H] DA uptake, LPS-induced neurotoxicity in rat mesencephalic neuron-glia cultures", "assay_type": "cell-based", "description": "as §1, §2, §3"}}, "data": [{"compound": "CC12CC3CC(C)(C1)CC(N)(C3)C2.Cl", "note": "[MMT, 1-amino-3,5-dimethyladamantane hydrochloride]", "values": [{"measurement": "release of TNF-α", "setting": "[1]", "result": "reduced"}, {"measurement": "concentration of memantine on NMDA receptor blocking", "setting": "[2]", "result": "about 10 μM"}, {"measurement": "increase of DA uptake capacity by MMT alone", "setting": "[3]; 3 μM MMT", "result": 30, "unit": "%"}, {"measurement": "increase of DA uptake capacity by MMT alone", "setting": "[3]; 10 μM MMT", "result": 80, "unit": "%"}, {"measurement": "effect against spontaneous DA neurons death", "setting": "[3]; MMT alone, rat primary midbrain neuron-glia cultures", "result": "dose-dependent surviving-promoting effects"}, {"measurement": "time of MMT addition after LPS still giving significant neuroprotection (DA uptake)", "setting": "[4]; MMT 10 μM, LPS 2.5 ng/ml, post-treatment", "result": "up to 120 min"}, {"measurement": "effect on LPS-induced decrease in DA uptake", "setting": "[4]; neuron-enriched cultures", "result": "not in neuron-enriched cultures"}, {"measurement": "effect on LPS-induced decrease in DA uptake", "setting": "[4]; pretreated 30 min with 1, 3, 10 μM MMT, neuron-glia cultures, dose-dependent", "result": "significantly attenuated the LPS-induced decrease in DA uptake"}]}]}
